In patent US11274083B2, “Substituted thiophenyl uracils, salts thereof and the use thereof as herbicidal agents” (Syngenta Crop Protection AG, priority 2017, dated 2022):
Blank lines part the entries; values can stand above or below the molecule they belong to.

Legend:
Assay type in all cases: in vivo
Matricaria inodora [1] = assay: Herbicidal action post-emergence, greenhouse pot test
In short: (§1)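 Weeds were sown in sandy loam and grown in a greenhouse for 2 to 3 weeks, then sprayed at the one-leaf stage with WP or EC formulations plus 0.5% additive at 600 L/ha water, at 80 g/ha or lower. Efficacy was scored visually about 3 weeks later against untreated controls.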

Abutilon theophrasti [2] = assay: as above
In short: as §1

Setaria viridis [3] = assay: as above
In short: as §1

Echinochloa crus-galli [4] = assay: as above
In short: as §1

Pharbitis purpurea [5] = assay: as above
In short: as §1

Polygonum convolvulus [6] = assay: as above
In short: as §1

Amaranthus retroflexus [7] = assay: as above
In short: as §1

Stellaria media [8] = assay: as above
In short: as §1

Viola tricolor [9] = assay: as above; details: application rate 20 g/ha
In short: as §1

Hordeum murinum [10] = assay: as above
In short: as §1

Lolium rigidum [11] = assay: as above
In short: as §1

Veronica persica [12] = assay: as above
In short: as §1

Triticum aestivum = assay: Crop compatibility post-emergence, greenhouse pot test
In short: (§2)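 Greenhouse post-emergence spray at one-leaf stage, 600 L/ha with 0.5% additive. Injury was assessed visually after about 3 weeks as % of untreated control.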

Abutilon theophrasti [13] = assay: Herbicidal action pre-emergence, greenhouse pot test; details: application rate 320 g/ha
In short: (§3)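 Seeds were sown in pots and covered with soil, then compounds formulated as WP or EC were sprayed onto the soil surface as aqueous suspension or emulsion with 0.5% additive at 600 L/ha water, 320 g/ha or lower. After about 3 weeks in the greenhouse, efficacy was scored visually as % versus untreated controls.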

Setaria viridis [14] = assay: as above; details: application rate 320 g/ha
In short: as §3

Echinochloa crus-galli [15] = assay: as above; details: application rate 320 g/ha
In short: as §3

Cyperus esculentus = assay: as above; details: application rate 320 g/ha
In short: as §3

Pharbitis purpurea [16] = assay: as above; details: application rate 320 g/ha
In short: as §3

Polygonum convolvulus [17] = assay: as above; details: application rate 320 g/ha
In short: as §3

Amaranthus retroflexus [18] = assay: as above; details: application rate 80 g/ha
In short: as §3

Stellaria media [19] = assay: as above; details: application rate 80 g/ha
In short: as §3

Alopecurus myosuroides [20] = assay: as above; details: application rate 320 g/ha
In short: as §3

Viola tricolor [21] = assay: as above; details: application rate 320 g/ha
In short: as §3

Hordeum murinum [22] = assay: as above; details: application rate 320 g/ha
In short: as §3

Avena fatua = assay: as above; details: application rate 320 g/ha
In short: as §3

Lolium rigidum [23] = assay: as above; details: application rate 320 g/ha
In short: as §3

Veronica persica [24] = assay: as above; details: application rate 320 g/ha
In short: as §3

Matricaria inodora [25] = assay: as above; details: application rate 80 g/ha
Digitaria sanguinalis = assay: Herbicidal action post-emergence, greenhouse pot test; details: application rate 20 g/ha
Alopecurus myosuroides [26] = assay: as above; details: application rate 20 g/ha, scored visually after about 3 weeks vs untreated controls
In short: as §1

Zea mays = assay: Crop compatibility post-emergence, greenhouse pot test; details: application rate 5 g/ha
In short: as §2

Oryza sativa = assay: as above; details: application rate 5 g/ha
In short: as §2

Triticum aestivum (Efficacy in %) (Triticum aestivum; application rate 80 g/ha): 20%
SMILES: CC(Sc1cc(-n2c(=O)cc(C(F)(F)F)n(C)c2=O)c(F)cc1Cl)C(=O)OCCC(=O)OC(C)(C)C (stereo not shown) [I.1-5]
Matricaria inodora (Efficacy in %) (Matricaria inodora [1]; application rate 80 g/ha): 100% | Abutilon theophrasti (Efficacy in %) (Abutilon theophrasti [2]; application rate 80 g/ha): 100% | Setaria viridis (Efficacy in %) (Setaria viridis [3]; application rate 80 g/ha): 100% | Echinochloa crus-galli (Efficacy in %) (Echinochloa crus-galli [4]; application rate 80 g/ha): 100% | Pharbitis purpurea (Efficacy in %) (Pharbitis purpurea [5]; application rate 80 g/ha): 100% | Polygonum convolvulus (Efficacy in %) (Polygonum convolvulus [6]; application rate 80 g/ha): 100% | Amaranthus retroflexus (Efficacy in %) (Amaranthus retroflexus [7]; application rate 80 g/ha): 100% | Stellaria media (Efficacy in %) (Stellaria media [8]; application rate 80 g/ha): 100% | Viola tricolor (Efficacy in %) (Viola tricolor [9]): 100% | Hordeum murinum (Efficacy in %) (Hordeum murinum [10]; application rate 80 g/ha): 80% | Lolium rigidum (Efficacy in %) (Lolium rigidum [11]; application rate 80 g/ha): 80% | Veronica persica (Efficacy in %) (Veronica persica [12]; application rate 80 g/ha): 100% | Abutilon theophrasti (Efficacy in %) (Abutilon theophrasti [13]): 100% | Setaria viridis (Efficacy in %) (Setaria viridis [14]): 100% | Echinochloa crus-galli (Efficacy in %) (Echinochloa crus-galli [15]): 100% | Cyperus esculentus (Efficacy in %) (Cyperus esculentus): 80% | Pharbitis purpurea (Efficacy in %) (Pharbitis purpurea [16]): 100% | Polygonum convolvulus (Efficacy in %) (Polygonum convolvulus [17]): 100% | Amaranthus retroflexus (Efficacy in %) (Amaranthus retroflexus [18]): 100% | Stellaria media (Efficacy in %) (Stellaria media [19]): 100% | Alopecurus myosuroides (Efficacy in %) (Alopecurus myosuroides [20]): 100% | Viola tricolor (Efficacy in %) (Viola tricolor [21]): 100% | Hordeum murinum (Efficacy in %) (Hordeum murinum [22]): 100% | Avena fatua (Efficacy in %) (Avena fatua): 100% | Lolium rigidum (Efficacy in %) (Lolium rigidum [23]): 100% | Veronica persica (Efficacy in %) (Veronica persica [24]): 100% | Matricaria inodora (Efficacy in %) (Matricaria inodora [25]): 100%

Triticum aestivum (Efficacy in %) (Triticum aestivum; application rate 20 g/ha): 20%
SMILES: CC(Sc1cc(-n2c(=O)cc(C(F)(F)F)n(C)c2=O)c(F)cc1Cl)C(=O)OCC(=O)OCc1ccccc1 (stereo not shown) [I.1-46]
Digitaria sanguinalis (Efficacy in %) (Digitaria sanguinalis): 100% | Matricaria inodora (Efficacy in %) (Matricaria inodora [1]; application rate 20 g/ha): 100% | Abutilon theophrasti (Efficacy in %) (Abutilon theophrasti [2]; application rate 20 g/ha): 100% | Setaria viridis (Efficacy in %) (Setaria viridis [3]; application rate 20 g/ha): 100% | Echinochloa crus-galli (Efficacy in %) (Echinochloa crus-galli [4]; application rate 20 g/ha): 100% | Pharbitis purpurea (Efficacy in %) (Pharbitis purpurea [5]; application rate 20 g/ha): 100% | Polygonum convolvulus (Efficacy in %) (Polygonum convolvulus [6]; application rate 20 g/ha): 100% | Amaranthus retroflexus (Efficacy in %) (Amaranthus retroflexus [7]; application rate 20 g/ha): 100% | Stellaria media (Efficacy in %) (Stellaria media [8]; application rate 20 g/ha): 100% | Alopecurus myosuroides (Efficacy in %) (Alopecurus myosuroides [26]): 80% | Viola tricolor (Efficacy in %) (Viola tricolor [9]): 100% | Hordeum murinum (Efficacy in %) (Hordeum murinum [10]; application rate 20 g/ha): 100% | Lolium rigidum (Efficacy in %) (Lolium rigidum [11]; application rate 20 g/ha): 80% | Veronica persica (Efficacy in %) (Veronica persica [12]; application rate 20 g/ha): 100%

Zea mays (Efficacy in %) (Zea mays): 0% | Oryza sativa (Efficacy in %) (Oryza sativa): 0%
SMILES: COC(=O)C1(OC(=O)C(C)Sc2cc(-n3c(=O)cc(C(F)(F)F)n(C)c3=O)c(F)cc2Cl)CC1 (stereo not shown) [I.1-102]
Digitaria sanguinalis (Efficacy in %) (Digitaria sanguinalis): 100% | Matricaria inodora (Efficacy in %) (Matricaria inodora [1]; application rate 20 g/ha): 100% | Abutilon theophrasti (Efficacy in %) (Abutilon theophrasti [2]; application rate 20 g/ha): 100% | Setaria viridis (Efficacy in %) (Setaria viridis [3]; application rate 20 g/ha): 100% | Echinochloa crus-galli (Efficacy in %) (Echinochloa crus-galli [4]; application rate 20 g/ha): 100% | Pharbitis purpurea (Efficacy in %) (Pharbitis purpurea [5]; application rate 20 g/ha): 100% | Polygonum convolvulus (Efficacy in %) (Polygonum convolvulus [6]; application rate 20 g/ha): 100% | Amaranthus retroflexus (Efficacy in %) (Amaranthus retroflexus [7]; application rate 20 g/ha): 100% | Stellaria media (Efficacy in %) (Stellaria media [8]; application rate 20 g/ha): 80% | Viola tricolor (Efficacy in %) (Viola tricolor [9]): 100% | Hordeum murinum (Efficacy in %) (Hordeum murinum [10]; application rate 20 g/ha): 100% | Lolium rigidum (Efficacy in %) (Lolium rigidum [11]; application rate 20 g/ha): 80% | Veronica persica (Efficacy in %) (Veronica persica [12]; application rate 20 g/ha): 100%
